Laboratory results as given in patent US20250019382A1, “NOVEL INHIBITORS OF CYCLIN-DEPENDENT KINASES” (Origenis Gmbh, priority 2021, published 2025).

Molecular target: T1, CDK9/CyclinT1 (Homo sapiens, UniProt P50750)
T1 construct: purchased ProQinase/Reaction Biology, USA #0371-0345-1
Experiment: CDK9/T1 ADPGlo kinase assay
Format: biochemical
Details: CDK9/CyclinT1 6 nM, ATP 10 microM, PDKtide 40 microM, 120 min RT
Description: The testing compound was evaluated in 12 concentrations in a 1:3 dilution series, starting from 5microM as the highest concentration.
In a white 384 microplate (Greiner bio-one, Austria #784904,) with 2 microL of 3-fold concentrated CDK9/CyclinT1 (ProQinase/Reaction Biology, USA #0371-0345-1, LOT.: 012), final concentration (f.c.) 6 nM, in 1×kinase buffer, 2 microL of compound (3× fold concentrated in f.c. 1.66% DMSO/H2O) was added and incubated at Room Temperature (RT) for 10 min. Then 2 microL of Substrate/ATP-Mix (3×PDKtide f.c. 40 microM, SignalChem Biotech, Canada via Biozol, Eching, Germany #P10-58, LOT.: L2230-7 and 3×UltraPure ATP f.c. 10 microM (ADP Glo Kinase assay, Promega GmbH, Germany #V9102)) were added, mixed and incubated for 120 min at RT.
After incubation time, 5 microL of ADP Glo reagent (ready to use, ADP Glo Kinase assay, Promega GmbH, Germany #V9102) were added, mixed and incubated for 40 min at RT.
In the last step, 10 microL of ADP Glo Detection reagent (ready to use, ADP Glo Kinase assay, Promega GmbH, Germany #V9102) were added, mixed and incubated for 30 min at RT.
GloMax Discover GM3000 Reader (Promega GmbH, Germany 9700000249) was used for the readout.
The inhibitor concentration was plotted against the luminescence to determine the IC50 using XLFit 5.5 (IDBS, Guildford) to fit to a sigmoidal dose response curve with a variable slope.

T1 sequence (P50750 whole entry): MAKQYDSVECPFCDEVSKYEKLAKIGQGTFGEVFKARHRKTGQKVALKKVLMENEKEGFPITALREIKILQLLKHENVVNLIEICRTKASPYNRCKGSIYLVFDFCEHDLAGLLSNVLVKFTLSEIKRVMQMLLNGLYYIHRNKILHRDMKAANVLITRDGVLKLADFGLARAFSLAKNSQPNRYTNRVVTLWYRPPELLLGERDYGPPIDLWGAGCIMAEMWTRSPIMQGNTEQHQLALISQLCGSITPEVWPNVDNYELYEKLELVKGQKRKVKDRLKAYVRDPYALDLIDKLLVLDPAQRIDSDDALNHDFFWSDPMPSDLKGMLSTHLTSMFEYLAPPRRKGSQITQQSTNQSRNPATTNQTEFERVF
T1 sequence (O60563 whole entry partner): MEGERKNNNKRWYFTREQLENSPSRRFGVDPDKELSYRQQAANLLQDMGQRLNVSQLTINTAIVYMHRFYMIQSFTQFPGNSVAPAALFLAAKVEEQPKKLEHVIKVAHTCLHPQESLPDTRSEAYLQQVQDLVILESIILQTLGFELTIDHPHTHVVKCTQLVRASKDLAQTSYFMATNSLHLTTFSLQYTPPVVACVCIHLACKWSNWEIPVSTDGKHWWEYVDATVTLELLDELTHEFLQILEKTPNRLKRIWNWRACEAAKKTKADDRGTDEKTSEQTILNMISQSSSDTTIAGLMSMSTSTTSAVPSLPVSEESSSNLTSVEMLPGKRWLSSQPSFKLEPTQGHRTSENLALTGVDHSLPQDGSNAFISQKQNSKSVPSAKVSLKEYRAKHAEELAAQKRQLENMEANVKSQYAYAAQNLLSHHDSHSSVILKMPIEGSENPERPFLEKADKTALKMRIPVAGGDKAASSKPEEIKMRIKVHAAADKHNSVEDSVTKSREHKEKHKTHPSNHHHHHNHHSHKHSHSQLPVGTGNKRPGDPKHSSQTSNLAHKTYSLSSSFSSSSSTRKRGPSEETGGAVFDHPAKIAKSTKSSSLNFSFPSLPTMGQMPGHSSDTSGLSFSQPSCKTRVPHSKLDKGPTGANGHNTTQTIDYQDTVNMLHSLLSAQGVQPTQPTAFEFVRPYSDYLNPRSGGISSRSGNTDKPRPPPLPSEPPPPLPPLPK

| SMILES | IC50 |
| --- | --- |
| Fc1cccc(F)c1-c1nc(Nc2cnn(C3CCN(C4CCOCC4)CC3)c2Cl)n2nccc2n1 [Example #73, N-(5-chloro-1-(1-(tetrahydro-2H-pyran-4-yl)piperidin-4-yl)-1H-pyrazol-4-yl)-2-(2,6-difluorophenyl)pyrazolo[1,5-a][1,3,5]triazin-4-amine] | < 1000 nM |
| Cc1cc(C)c(CNc2nc(-c3c(F)cccc3F)nc3c(Cl)cnn23)cn1 [Example #145, 8-chloro-2-(2,6-difluorophenyl)-N-((4,6-dimethylpyridin-3-yl)methyl)pyrazolo[1,5-a][1,3,5]triazin-4-amine] | < 20 nM |
| CC(C)(C)NC(=O)c1ccc(Nc2nc(-c3c(F)cccc3F)nc3ccnn23)cc1 [Example #27, N-(tert-butyl)-4-((2-(2,6-difluorophenyl)pyrazolo[1,5-a][1,3,5]triazin-4-yl)amino)benzamide] | < 1000 nM |
| CCOc1cc(Nc2nc(-c3c(F)cccc3F)nc3ccnn23)ccc1N1CCN(C)CC1 [Example #8, 2-(2,6-difluorophenyl)-N-(3-ethoxy-4-(4-methylpiperazin-1-yl)phenyl)pyrazolo[1,5-a][1,3,5]triazin-4-amine] | < 1000 nM |
| CCOc1cc(Nc2nc(-c3c(F)cccc3F)nc3ccnn23)ccc1C1=CCN(C)CC1 [Example #14, 2-(2,6-difluorophenyl)-N-(3-ethoxy-4-(1-methyl-1,2,3,6-tetrahydropyridin-4-yl)phenyl)pyrazolo[1,5-a][1,3,5]triazin-4-amine] | < 1000 nM |
| CN1CCN(C2CCN(c3ccc(Nc4nc(-c5c(F)cccc5F)nc5ccnn45)cc3)CC2)CC1 [Example #46, 2-(2,6-difluorophenyl)-N-(4-(4-(4-methylpiperazin-1-yl)piperidin-1-yl)phenyl)pyrazolo[1,5-a][1,3,5]triazin-4-amine] | < 1000 nM |
| O=C(NC1CCOCC1)c1ccc(Nc2nc(-c3c(F)cccc3F)nc3ccnn23)cc1 [Example #29, 4-((2-(2,6-difluorophenyl)pyrazolo[1,5-a][1,3,5]triazin-4-yl)amino)-N-(tetrahydro-2H-pyran-4-yl)benzamide] | < 1000 nM |
| O=C(c1ccc(Nc2nc(-c3c(F)cccc3F)nc3c(Cl)cnn23)cc1)N1CCOCC1 [Example #98, (4-((8-chloro-2-(2,6-difluorophenyl)pyrazolo[1,5-a][1,3,5]triazin-4-yl)amino)phenyl)(morpholino)methanone] | < 1000 nM |
| CN1CCN(c2ccc(Nc3nc(-c4c(F)cccc4F)nc4ccnn34)cc2)CC1 [Example #38, 2-(2,6-difluorophenyl)-N-(4-(4-methylpiperazin-1-yl)phenyl)pyrazolo[1,5-a][1,3,5]triazin-4-amine] | < 1000 nM |
| N#Cc1cnn2c(Nc3cnn(C4CCN(C5CCOCC5)CC4)c3)nc(-c3c(F)cccc3F)nc12 [Example #88, 2-(2,6-difluorophenyl)-4-((1-(1-(tetrahydro-2H-pyran-4-yl)piperidin-4-yl)-1H-pyrazol-4-yl)amino)pyrazolo[1,5-a][1,3,5]triazine-8-carbonitrile] | < 200 nM |
| Fc1cccc(F)c1-c1nc(Nc2ccc(N3CCOCC3)cc2)n2nccc2n1 [Example #37, 2-(2,6-difluorophenyl)-N-(4-morpholinophenyl)pyrazolo[1,5-a][1,3,5]triazin-4-amine] | < 1000 nM |
| O=C(NC1CCOCC1)c1ccc(Nc2nc(-c3c(F)cccc3Cl)nc3ccnn23)cc1 [Example #25, 4-((2-(2-chloro-6-fluorophenyl)pyrazolo[1,5-a][1,3,5]triazin-4-yl)amino)-N-(tetrahydro-2H-pyran-4-yl)benzamide] | < 1000 nM |
| Fc1cccc(F)c1-c1nc(Nc2ccc(N3CCC(N4CCOCC4)CC3)cc2)n2nccc2n1 [Example #43, 2-(2,6-difluorophenyl)-N-(4-(4-morpholinopiperidin-1-yl)phenyl)pyrazolo[1,5-a][1,3,5]triazin-4-amine] | < 1000 nM |
| CC(C)(C)N1CCN(c2ccc(Nc3nc(-c4c(F)cccc4F)nc4c(Cl)cnn34)cc2)CC1 [Example #97, N-(4-(4-(tert-butyl)piperazin-1-yl)phenyl)-8-chloro-2-(2,6-difluorophenyl)pyrazolo[1,5-a][1,3,5]triazin-4-amine] | < 200 nM |
| Fc1cccc(F)c1-c1nc(Nc2cnn(C3CCN(C4CC4)CC3)c2)n2nccc2n1 [Example #83, N-(1-(1-cyclopropylpiperidin-4-yl)-1H-pyrazol-4-yl)-2-(2,6-difluorophenyl)pyrazolo[1,5-a][1,3,5]triazin-4-amine] | < 200 nM |
| Fc1cccc(Cl)c1-c1nc(Nc2cnn(C3CCN(C4CCOCC4)CC3)c2)n2nccc2n1 [Example #71, 2-(2-chloro-6-fluorophenyl)-N-(1-(1-(tetrahydro-2H-pyran-4-yl)piperidin-4-yl)-1H-pyrazol-4-yl)pyrazolo[1,5-a][1,3,5]triazin-4-amine] | < 200 nM |
| CCOc1cc(Nc2nc(-c3c(F)cccc3Cl)nc3ccnn23)ccc1C1=CCN(C)CC1 [Example #16, 2-(2-chloro-6-fluorophenyl)-N-(3-ethoxy-4-(1-methyl-1,2,3,6-tetrahydropyridin-4-yl)phenyl)pyrazolo[1,5-a][1,3,5]triazin-4-amine] | < 1000 nM |
| N#Cc1cnn2c(N[C@H]3CC[C@H](N4CCOCC4)CC3)nc(-c3c(F)cccc3F)nc12 [Example #93, 2-(2,6-difluorophenyl)-4-(((1r,4r)-4-morpholinocyclohexyl)amino)pyrazolo[1,5-a][1,3,5]triazine-8-carbonitrile] | < 200 nM |
| Fc1cccc(F)c1-c1nc(NC2CCC(N3CCOCC3)CC2)n2nccc2n1 (stereo not drawn) [Example #70, 2-(2,6-difluorophenyl)-N-((1r,4r)-4-morpholinocyclohexyl)pyrazolo[1,5-a][1,3,5]triazin-4-amine] | < 20 nM |

More lines, now with the values ahead:

| IC50 | SMILES |
| --- | --- |
| < 200 nM | N[C@H]1CC[C@@H](Nc2nc(-c3c(F)cccc3F)nc3c(Cl)cnn23)CC1 [Example #112, (1s,4s)-N1-(8-chloro-2-(2,6-difluorophenyl)pyrazolo[1,5-a][1,3,5]triazin-4-yl)cyclohexane-1,4-diamine] |
| < 20 nM | CN1CCC(Nc2nc(-c3c(F)cccc3F)nc3c(Cl)cnn23)CC1 [Example #141, 8-chloro-2-(2,6-difluorophenyl)-N-(1-methylpiperidin-4-yl)pyrazolo[1,5-a][1,3,5]triazin-4-amine] |
| < 20 nM | OCCN[C@H]1CC[C@H](Nc2nc(-c3c(F)cccc3F)nc3c(Cl)cnn23)CC1 [Example #127, 2-(((1r,4r)-4-((8-chloro-2-(2,6-difluorophenyl)pyrazolo[1,5-a][1,3,5]triazin-4-yl)amino)cyclohexyl)amino)ethan-1-ol] |
| < 20 nM | Fc1cccc(F)c1-c1nc(NC2CCC(N3CCCC3)CC2)n2ncc(Cl)c2n1 (stereo not drawn) [Example #138, 8-chloro-2-(2,6-difluorophenyl)-N-((1r,4r)-4-(pyrrolidin-1-yl)cyclohexyl)pyrazolo[1,5-a][1,3,5]triazin-4-amine] |
| < 1000 nM | Cn1cc(Nc2nc(-c3c(F)cccc3F)nc3c(C(F)(F)F)cnn23)cn1 [Example #115, 2-(2,6-difluorophenyl)-N-(1-methyl-1H-pyrazol-4-yl)-8-(trifluoromethyl)pyrazolo[1,5-a][1,3,5]triazin-4-amine] |
| < 20 nM | Cn1cc(Nc2nc(-c3c(F)cccc3F)nc3c(Cl)cnn23)cn1 [Example #104, 8-chloro-2-(2,6-difluorophenyl)-N-(1-methyl-1H-pyrazol-4-yl)pyrazolo[1,5-a][1,3,5]triazin-4-amine] |
| < 200 nM | CN(C)[C@H]1CC[C@H](Nc2nc(-c3c(F)cccc3F)nc3c(C(F)(F)F)cnn23)CC1 [Example #120, (1r,4r)-N1-(2-(2,6-difluorophenyl)-8-(trifluoromethyl)pyrazolo[1,5-a][1,3,5]triazin-4-yl)-N4,N4-dimethylcyclohexane-1,4-diamine] |
| < 20 nM | CN(C)[C@@H]1CC[C@@H](Nc2nc(-c3c(F)cccc3F)nc3c(Cl)cnn23)C1 [Example #119, (1R,3R)-N1-(8-chloro-2-(2,6-difluorophenyl)pyrazolo[1,5-a][1,3,5]triazin-4-yl)-N3,N3-dimethylcyclopentane-1,3-diamine] |
| < 200 nM | C#Cc1cnn2c(N[C@H]3CC[C@H](N4CCOCC4)CC3)nc(-c3c(F)cccc3F)nc12 [Example #139, 2-(2,6-difluorophenyl)-8-ethynyl-N-((1r,4r)-4-morpholinocyclohexyl)pyrazolo[1,5-a][1,3,5]triazin-4-amine] |
| < 20 nM | NC1CCC(Nc2nc(-c3c(F)cccc3F)nc3c(Cl)cnn23)C1 (stereo not drawn) [Example #117, N1-(8-chloro-2-(2,6-difluorophenyl)pyrazolo[1,5-a][1,3,5]triazin-4-yl)cyclopentane-1,3-diamine] |
| < 20 nM | CN(CCCO)C1CCC(Nc2nc(-c3c(F)cccc3F)nc3c(Cl)cnn23)CC1 (stereo not drawn) [Example #134, 3-({4-[8-Chloro-2-(2,6-difluoro-phenyl)-pyrazolo[1,5-a][1,3,5]triazin-4-ylamino]-cyclohexyl}-methyl-amino)-propan-1-ol] |
